One data set concerns the target T1, hOT receptor (Homo sapiens, UniProt P30559).
T1 construct: expressed in transfected cells; host or cells: HEK293EBNA cells (membranes)
T1 sequence (P30559 1-389): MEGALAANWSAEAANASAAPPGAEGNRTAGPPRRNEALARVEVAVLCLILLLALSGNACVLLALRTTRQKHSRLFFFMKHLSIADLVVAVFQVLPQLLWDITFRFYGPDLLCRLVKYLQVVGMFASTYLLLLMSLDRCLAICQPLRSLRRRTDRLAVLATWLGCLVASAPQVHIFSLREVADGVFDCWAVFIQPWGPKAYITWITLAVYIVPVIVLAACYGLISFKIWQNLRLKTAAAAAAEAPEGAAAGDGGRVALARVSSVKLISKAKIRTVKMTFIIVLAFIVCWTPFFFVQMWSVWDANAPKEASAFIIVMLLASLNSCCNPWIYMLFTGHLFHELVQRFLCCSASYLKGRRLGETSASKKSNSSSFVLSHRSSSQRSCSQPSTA
The data set can be described thus: In vitro competition binding assay on hOT receptor with scintillating proximity assay. The note with it: membranes from HEK293EBNA cells expressing hOT receptor; radiolabel [125I]-OVTA; SPA; read-out: Binding Affinity Human OT-R Ki. As to the method: a) In Vitro Competition Binding Assay on hOT Receptor with Scintillating Proximity Assay (Pharmaceutical Manufacturing International, 1992, p. 49-53 by Cook, N. D. et al)
This assays allows to determine the affinity of the test compounds for the OT receptor. Membranes from HEK293EBNA cells expressing the hOT receptor were resuspended in buffer containing 50 mM Tris-HCl, pH 7.4, 5 mM MgCl2 and 0.1% BSA (w/v). The membranes (2-4 μg) were mixed with 0.1 mg wheat-germ aglutinin (WGA) SPA bead (type A) and 0.2 nM of the radiolabel [^125I]-OVTA (OVTA being […] and is an analogue of OT for competition binding experiments). Non-specific binding was determined in the presence of 1 μM Oxytocin. The total assay volume was 100 μl. The plates (Corning (D NBS plate) were incubated at room temperature for 30 min and counted on a Mibrobeta plate counter. The tests compounds were used in concentrations of 30 μM, 10 μM, 1 μM, 300 nM, 100 nM, 10 nM, 1 nM, 100 pM, 10 pM. The competition binding data were analysed using the iterative, nonlinear, curve-fitting program, “Prism”.
The binding affinities to the oxytocin receptor of the sulfanilide derivatives claimed in the formula I were assessed using the above described in vitro biological assay. The values refer to the binding affinity (IC50; μM) of the example compounds according to formula I to the Oxytocin receptor. From the values shown in Table 1 it can be derived that said test compounds according to formula I do show a significant binding to the oxytocin receptor.
Consider `CCOc1ccc(S(=O)(=O)N(CC(=O)N/N=C2\C(=O)Nc3ccccc32)c2ccc(Cl)cc2)cc1` [Example 40, N-(4-chlorophenyl)-4-ethoxy-N-{2-oxo-2-[(2Z)-2-(2-oxo-1,2-dihydro-3H-indol-3-ylidene)hydrazino]ethyl}benzenesulfonamide], for which the Ki turned out to be 0.0004 µM.
For the compound `COCCOCCOc1ccc(S(=O)(=O)N(CC(=O)N/N=C2\C(=O)Nc3ccccc32)c2ccc(Cl)cc2)cc1` [Example 61, N-(4-chlorophenyl)-4-[2-(2-methoxyethoxy)ethoxy]-N-{2-oxo-2-[(2Z)-2-(2-oxo-1,2-dihydro-3H-indol-3-ylidene)hydrazino]ethyl}benzenesulfonamide], the Ki was 0.0029 µM.
On the same count and under the same terms, to `O=C(CN(c1ccc(Cl)cc1)S(=O)(=O)c1ccc(OCCCc2cccnc2)cc1)N/N=C1\C(=O)Nc2ccccc21` [Example 63, N-(4-chlorophenyl)-N-{2-oxo-2-[(2Z)-2-(2-oxo-1,2-dihydro-3H-indol-3-ylidene)hydrazino]ethyl}-4-[3-(3-pyridinyl)propoxy]benzenesulfonamide] belongs 0.0028 µM.

The target of a further data set is T2, hOT-R (Homo sapiens, UniProt P30559).
T2 construct: expressed in transfected cells; host or cells: HEK (Human Embryonic Kidney) cells
T2 sequence (P30559 1-389): T1 sequence (P30559 1-389)
In words: Inhibition of oxytocin mediated Ca2+-mobilization by FLIPR (HEK cells). The note with it: fluo-4, OT 40 nM. In kind it is cell-based. From the text: c) Functional Assay No. 1: Inhibition of Oxytocitn Mediated Ca^2+-Mobilization by FLIPR (Fluorescent Imaging Plate Reader)
FLIPR is a machine for fluorescence imaging using a laser that is capable of illuminating a 96-well plate and a means of simultaneously reading each well thus enabling rapid measurements on a large number of samples.
This assay intends to show the inhibition of the OT/OT-R mediated calcium mobilisation—being necessary to cause uterine contractions—by using test compounds of formula (I).
Preparing the plates: FLIPR-plates were pre-coated with PLL (Poly-L-Lysine) 10 μg/ml+0.1% gelatine to attach the HEK (Human Embryonic Kidney) cells for 30 min up to 2 days at 37° C. The cells were plated out into 96-well plates (60000 cells/well).
Labelling with fluo-4: […] fluo-4 (fluorescent marker) were dissolved in 20 μl pluronic acid (20% in DMSO). The dissolved fluo-4 was then diluted in 10 ml DMEM (Dubecco's Minimal Essential Medium-F12 medium without FCS (Fetal Calf Serum). The medium was removed from the plates, followed by one wash with DNEM-F12 medium. Now, 100 μl of the DMEM-F12 medium containing fluo-4 were added and the cells incubated for 1.5-2 h (HEK-cells). The cells now contain the fluorescent marker.
Buffer: 145 mM NaCl, 5 mM KCl, 1 mM MgCl2, 10 mM Hepes, 10 mM Glucose, EGTA (Ethylene-bis oxyethylene nitrilo tetraacetic acid). Adjust to pH 7.4.
Performance of the assay: A minimum of 80 μl/well of antagonists (5×) in the above buffer (1×) were prepared (96-well plates). The antagonists were added to the well-plates at different concentrations (30 μM, 10 μM, 1 μM, 300 nM, 100 nM, 10 nM, 1 nM, 100 pM, 10 pM).
OT is added at a concentration of 40 nM.
The fluorescent marker being sensitive to the amount of Ca^2+ mobilized within the cell may be quantified by the FLIPR machine.
The activities of the sulfanilide derivatives according to formula I were assessed using the above described in vitro biological assay. The values refer to the capacity of the example compounds according to formula I to effectively antagonize oxytocin-induced intracellular Ca^2+-mobilization mediated by the oxytocin receptor.
As to `COc1ccc(N(CC(=O)Nc2cccc(Cl)c2C)S(=O)(=O)c2ccccc2)cc1` [2-[Benzenesulfonyl-(4-methoxy-phenyl)-amino]-N-(3-chloro-2-methyl-phenyl)-acetamide], the 50% inhibitory concentration (IC50) came to 0.045 µM. That is a double-digit nanomolar value.
Compound `COc1ccc(N(CC(=O)Nc2cccc(OC)c2)S(=O)(=O)c2ccccc2)cc1` [2-[Benzenesulfonyl-(4-methoxy-phenyl)-amino]-N-(3-methoxy-phenyl)-acetamide] gave an IC50 of 0.392 µM.
The compound `COc1ccc(N(CC(=O)Nc2cccc3ccccc23)S(=O)(=O)c2ccccc2)cc1` [2-[Benzenesulfonyl-(4-methoxy-phenyl)-amino]-N-naphthalen-1-yl-acetamide] displayed a half-maximal inhibitory concentration (IC50) of 0.363 µM. The IC50 values of the last two compounds are within 1.5-fold of each other.
As to `CCOc1ccc(S(=O)(=O)N(CC(=O)N/N=C2\C(=O)Nc3ccccc32)c2ccc(Cl)cc2)cc1` [Example 40, N-(4-chlorophenyl)-4-ethoxy-N-{2-oxo-2-[(2Z)-2-(2-oxo-1,2-dihydro-3H-indol-3-ylidene)hydrazino]ethyl}benzenesulfonamide], the IC50 amounted to 0.102 µM.
In turn, `COCCOCCOc1ccc(S(=O)(=O)N(CC(=O)N/N=C2\C(=O)Nc3ccccc32)c2ccc(Cl)cc2)cc1` [Example 61, N-(4-chlorophenyl)-4-[2-(2-methoxyethoxy)ethoxy]-N-{2-oxo-2-[(2Z)-2-(2-oxo-1,2-dihydro-3H-indol-3-ylidene)hydrazino]ethyl}benzenesulfonamide] came in with an IC50 of 0.0069 µM.
The compound `COCCOc1ccc(S(=O)(=O)N(CC(=O)N/N=C2\C(=O)Nc3ccccc32)c2ccc(Cl)cc2)cc1` [Example 62, N-(4-chlorophenyl)-4-(2-methoxyethoxy)-N-{2-oxo-2-[(2Z)-2-(2-oxo-1,2-dihydro-3H-indol-3-ylidene)hydrazino]ethyl}benzenesulfonamide] gave an IC50 of 0.008 µM.
In turn, `O=C(CN(c1ccc(Cl)cc1)S(=O)(=O)c1ccc(OCCCc2cccnc2)cc1)N/N=C1\C(=O)Nc2ccccc21` [Example 63, N-(4-chlorophenyl)-N-{2-oxo-2-[(2Z)-2-(2-oxo-1,2-dihydro-3H-indol-3-ylidene)hydrazino]ethyl}-4-[3-(3-pyridinyl)propoxy]benzenesulfonamide] had a half-maximal inhibitory concentration (IC50) of 0.017 µM.
On to `Cc1ccc(N(CC(=O)NCc2ccc(Cl)cc2Cl)S(=O)(=O)c2ccc(C)cc2)cc1` [N-(2,4-Dichloro-benzyl)-2-[(toluene-4-sulfonyl)-p-tolyl-amino]-acetamide], for which the IC50 was found to be 0.595 µM. Compared with the last compound, the IC50 is about 35-fold higher.

Tested on in another data set: not given
Experiment: not given
Conditions: not given
In turn, `Cc1ccc(N(CC(=O)N/N=C2/C(=O)Nc3ccccc32)S(=O)(=O)c2ccc(-c3ccccc3)cc2)cc1` [Example 13, N-(4-methylphenyl)-N-{2-oxo-2-[2-(2-oxo-1.2-dihydro-3H-indol-3-ylidene)hydrazino]ethyl}[1,1′-biphenyl]-4-sulfonamide] returned a melting point of 246 to 247 °C.
`Cc1ccc(N(CC(=O)N/N=C2/C(=O)Nc3ccccc32)S(=O)(=O)c2ccc(Oc3ccccc3)cc2)cc1` [Example 14, N-(4-methylphenyl)-N-{2-oxo-2-[2-(2-oxo-1,2-dihydro-3H-indol-3-ylidene)hydrazino]ethyl}-4-phenoxybenzenesulfonamide] came in with a melting point of 245 to 246 °C.
`CCOc1ccc(S(=O)(=O)N(CC(=O)N/N=C\c2ccc(N(CC)CC)cc2O)c2ccc(C)cc2)cc1` [Example 16, N-(2-{2-[4-(diethylamino)-2-hydroxybenzylidene]hydrazino}-2-oxoethyl)-4-ethoxy-N-(4-methylphenyl)benzenesulfonamide] showed a melting point of 227 to 228 °C.
Take `COc1ccc(-c2ccc(S(=O)(=O)N(CC(=O)N/N=C3\C(=O)Nc4ccccc43)c3ccc(C)cc3)cc2)cc1` [Example 19, 4′-methoxy-N-(4-methylphenyl)-N-{2-oxo-2-[2-(2-oxo-1,2-dihydro-3H-indol-3-ylidene)hydrazino]ethyl}[1,1′-biphenyl]-4-sulfonamide]: the melting point lay in the range of 235 to 236 °C.
The same measure, in the same setting: the same measure for `CCOc1ccc(S(=O)(=O)N(CC(=O)N/N=C2/C(=O)N(C)c3ccccc32)c2ccc(C)cc2)cc1` [Example 20, 4-ethoxy-N-{2-[2-(1-methyl-2-oxo-1,2-dihydro-3H-indol-3-ylidene)hydrazino]-2-oxoethyl}-N-(4-methylphenyl)benzenesulfonamide]: 109 to 110 °C; for `CCOc1ccc(S(=O)(=O)N(CC(=O)N/N=C(/C)c2ccccc2O)c2ccc(C)cc2)cc1` [Example 22, 4-ethoxy-N-(2-{2-[1-(2-hydroxyphenyl)ethylidene]hydrazino}-2-oxoethyl)-N-(4-methylphenyl)benzenesulfonamide]: 199 to 200 °C.
The compound `CC(C)(C)c1ccc(S(=O)(=O)N(CC(=O)N/N=C2/C(=O)Nc3ccccc32)c2ccc(Cl)cc2)cc1` [Example 26, 4-tert-Butyl-N-(4-chlorophenyl)-N-{2-oxo-2-[(2E)-2-(2-oxo-1,2-dihydro-3H-indol-3-ylidene)hydrazino]ethyl}benzenesulfonamide] returned a melting point of 194 to 195 °C.
Compound `COc1ccc(S(=O)(=O)N(CC(=O)N/N=C2/C(=O)Nc3ccccc32)c2ccc(Cl)cc2)cc1OC` [Example 27, N-(4-chlorophenyl)-3,4-dimethoxy-N-{2-oxo-2-[(2E)-2-(2-oxo-1,2-dihydro-3H-indol-3-ylidene)hydrazino]ethyl}benzenesulfonamide] yielded a melting point of 132 to 133 °C.
Turning to `Cc1ccc(N(CC(=O)N/N=C2/C(=O)Nc3ccccc32)S(=O)(=O)c2ccc(C(C)(C)C)cc2)cc1` [Example 28, 4-tert-Butyl-N-(4-methylphenyl)-N-{2-oxo-2-[(2E)-2-(2-oxo-1,2-dihydro-3H-indol-3-ylidene)hydrazino]ethyl}benzenesulfonamide], the melting point was in the range of 139 to 140 °C.
Take `CCCc1ccc(S(=O)(=O)N(CC(=O)N/N=C2/C(=O)Nc3ccccc32)c2ccc(C)cc2)cc1` [Example 29, N-(4-methylphenyl)-N-{2-oxo-2-[(2E)-2-(2-oxo-12-dihydro-3H-indol-3-ylidene)hydrazino]ethyl}-4-propylbenzenesulfonamide]: the melting point lay within 198 to 199 °C.
Consider `CCCCOc1ccc(S(=O)(=O)N(CC(=O)N/N=C2/C(=O)Nc3ccccc32)c2ccc(C)cc2)cc1` [Example 30, 4-Butoxy-N-(4-methylphenyl)-N-{2-oxo-2-[(2E)-2-(2-oxo-1.2-dihydro-3H-indol-3-ylidene)hydrazino]ethyl}benzenesulfonamide], for which the melting point was in the range of 111 to 112 °C.

For the origin of these results see patent US7312358B2, “Pharmaceutically active sulfanilide derivatives” (Laboratoires Serono SA, priority 2000, dated 2007).
